According to US20190216923A1, “METHODS AND COMBINATION THERAPY TO TREAT CANCER” (Array BioPharma Inc., priority 2018, published 2019):

Key:
melanoma cell lines = assay: Cell surface MHC class I expression, summary over the melanoma cell line panel; assay type: cell-based, human
Method: The goal of this study was to measure the effects of binimetinib on cell surface MHC class I expression in various melanoma cell lines. In this study, eight melanoma cell lines were evaluated: MEL-JUSO (NRAS Q61L mutation), IPC-298 (NRAS Q61L mutation), A375 (BRAF V600E, homozygous mutation), HS936.T (NRAS Q61K mutation and BRAF N581K mutation), MM485 (NRAS Q61R mutation), SK-MEL-2 (NRAS Q61R mutation), MM415 (NRAS Q61L mutation), Malme-3M (BRAF V600E, heterozygous mutation). The cells lines were seeded into flat bottom 96-well tissue culture plates at a density of 5000 cells per well and allowed to adhere overnight. The following day cells were treated with vehicle control (0.25% DMSO) or varying dilutions of Binimetinib (0.7 nM-25000 nM) for 1 hour. Cells were then treated with vehicle control or 100 ng/ml IFNgamma (R&D systems) for 72 hours. Cells were washed, trypsinized, and stained with Alexa Fluor® 647 anti-human HLA-A,B,C antibody (W6/32, eBioscience) and analyzed on a BD FACSCanto II flow cytometer. An IFNg titration and time course were performed for assay optimization. Maximal induction of MHC class I expression was seen 100 ng/mL of IFNγ (see, e.g., FIGS. 1 and 2).

[1] = test system: KRas mutant CT26 murine colon syngeneic tumors; assay: CT26 syngeneic tumor growth, survival and tolerability; assay type: in vivo; conditions: table
Method: 1% CMC/0.5% Tween-80 (CMCT) was prepared by adding 960 mL of distilled water to a 1000 mL Pyrex® glass bottle with a stir bar in the bottom, and was used as the oral vehicle. […] Carboxymethylcellulose (5 g, CMC, low viscosity, Sigma C5678, Batch #033K0008) was added slowly, over one hour. The solution was stirred until the CMC dissolved and the solution was clear. 30 mg/kg MEK162 (Binimetinib, 100% active) was prepared as a white, homogeneous suspension in CMCT. MEK162 was administered in 10 mL/kg and dosed at 30 mg/kg (3.0 mg/mL) by oral gavage. To prepare, dry test compound (90 mg) was weighed and 30 mL CMCT added. Dose suspension was sonicated until a fine suspension was achieved (˜15 min). Final dose suspension was stored at 4° C. during live phase and sonicated to resuspend prior to dose administration. Dose suspension was prepared every 4-5 days or as needed. […]
Animals were monitored for tumor growth and body weight 2-3 times per week based on outgrowth kinetics. Tumor diameter was measured with digital calipers, and the tumor volume in mm^3 was calculated by the formula: Volume=((width)^2×length)/2. TGI was calculated on day 15. […]
Survival defined as morbidity, mortality or tumor size exceeding 1400 mm3. […] Cures: Animals with no palpable tumor at the end of the study were scored as cures. […]

CT26 tumors = assay: T-cell fraction and clonality by immune sequencing (mmTCRB assay); assay type: in vivo, mouse; conditions: 5/10 tumors per group, FIG. 15
Method: Animals were monitored for tumor growth and body weight 2-3 times per week based on outgrowth kinetics. Tumor diameter was measured with digital calipers, and the tumor volume in mm^3 was calculated by the formula: Volume=((width)^2×length)/2. TGI was calculated on day 15. Animals were removed from study if found moribund or if tumor volume exceeded 1400 mm^3. At that time, tumor tissue was harvested and frozen for later analysis of T-cell clonality by immune sequencing (Adaptive Biotech, San Diego, Calif.). Food, water, temperature and humidity were according to Pharmacology Testing Facility performance standards (SOP's) which are in accordance with the 1996 Guide for the Care and Use of Laboratory Animals (NRC) and AAALAC-International.
The mechanism of combination activity was investigated by analyzing T-cell fraction and clonality by immune sequencing in 5/10 tumors from each group (FIG. 15). To determine the effect of binimetinib on the T cell repertoire of CT26 tumors, analysis was performed of mouse T-cell diversity, clonality and abundance as potential biomarkers by survey level sequencing of mouse tumor samples using the mmTCRB assay. Clonality was determined by quantitating the extent of mono- or oligoclonal expansion by measuring the shape of the clone frequency distribution. […]

[2] = Binimetinib steady state exposure quoted in figure legends; assay type: in vivo

Cn1cnc2c(F)c(Nc3ccc(Br)cc3F)c(C(=O)NOCCO)cc21 [Binimetinib, 6-(4-bromo-2-fluorophenylamino)-7-fluoro-3-methyl-3H-benzoimidazole-5-carboxylic acid (2-hydroxyethoxy)-amide]
increase of IFNg-induced MHC class I (melanoma cell lines; all tested cell lines, +IFNg): 1.5-4 fold | increase in MHC class I cell surface expression (melanoma cell lines; in the 6 of 8 melanoma cell lines that responded, no IFNg): 1.5-3 fold | Median Survival [1]: 26 | T-cell clonality (CT26 tumors): trend for decreased | T-cell fraction (CT26 tumors): trend for decreased | Steady state Cmax, free fraction ([2]; free fraction): 26 nM | Trough (day 15), free fraction ([2]; free fraction, day 15): 8.1 nM | Cmax ([2]; in vivo, total): 1000 nM
